Source: ChEMBL document CHEMBL4321837, “Discovery of Potent and Orally Effective Dual Janus Kinase 2/FLT3 Inhibitors for the Treatment of Acute Myelogenous Leukemia and Myeloproliferative Neoplasms” (J Med Chem, 2019)

How the values were obtained:
[1] = molecular target: Receptor-type tyrosine-protein kinase FLT3 (Homo sapiens) (UniProt P36888); experiment: Inhibition of human FLT3 (564 to end residues) assessed as residual activity at 100 nM using EAIYAAPFAKKK as substrate after 40 mins in presence of [gamma33P]-ATP by scintillation counting based radiometric assay relative to control
Chain of Receptor-type tyrosine-protein kinase FLT3 (Homo sapiens) (P36888 whole entry): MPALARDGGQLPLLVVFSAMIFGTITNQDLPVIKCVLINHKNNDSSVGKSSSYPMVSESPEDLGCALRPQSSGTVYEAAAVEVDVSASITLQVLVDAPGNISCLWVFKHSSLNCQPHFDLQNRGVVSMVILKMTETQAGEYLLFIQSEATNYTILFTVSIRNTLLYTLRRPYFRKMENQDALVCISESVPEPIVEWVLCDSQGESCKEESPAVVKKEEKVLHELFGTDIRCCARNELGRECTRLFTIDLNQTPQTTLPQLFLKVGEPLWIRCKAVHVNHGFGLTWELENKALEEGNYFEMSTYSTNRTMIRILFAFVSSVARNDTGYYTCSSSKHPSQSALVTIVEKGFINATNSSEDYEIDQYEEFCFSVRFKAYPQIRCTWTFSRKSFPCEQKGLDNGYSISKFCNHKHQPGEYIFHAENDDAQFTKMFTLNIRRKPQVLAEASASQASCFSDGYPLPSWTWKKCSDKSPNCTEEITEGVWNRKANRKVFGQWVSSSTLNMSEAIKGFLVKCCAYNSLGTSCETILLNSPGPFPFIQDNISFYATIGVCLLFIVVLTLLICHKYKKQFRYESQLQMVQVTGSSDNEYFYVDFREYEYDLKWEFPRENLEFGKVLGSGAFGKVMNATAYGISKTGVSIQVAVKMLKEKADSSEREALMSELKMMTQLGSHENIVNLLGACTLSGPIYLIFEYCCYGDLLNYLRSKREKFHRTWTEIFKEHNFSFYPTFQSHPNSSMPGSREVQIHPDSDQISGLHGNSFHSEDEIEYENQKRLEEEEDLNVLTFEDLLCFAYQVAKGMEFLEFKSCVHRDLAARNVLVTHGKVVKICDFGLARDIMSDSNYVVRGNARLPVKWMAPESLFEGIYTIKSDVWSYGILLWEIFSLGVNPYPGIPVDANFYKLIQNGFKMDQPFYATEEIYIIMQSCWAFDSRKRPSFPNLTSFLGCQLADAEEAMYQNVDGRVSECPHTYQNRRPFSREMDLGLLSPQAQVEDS

[2] = molecular target: Tyrosine-protein kinase JAK1 (Homo sapiens, UniProt P23458); experiment: Inhibition of human JAK1 (866 to end residues) assessed as residual activity at 100 nM using GEEPLYWSFPAKK as substrate after 40 mins in presence of [gamma33P]-ATP by scintillation counting based radiometric assay relative to control
Chain of Tyrosine-protein kinase JAK1 (P23458 whole entry): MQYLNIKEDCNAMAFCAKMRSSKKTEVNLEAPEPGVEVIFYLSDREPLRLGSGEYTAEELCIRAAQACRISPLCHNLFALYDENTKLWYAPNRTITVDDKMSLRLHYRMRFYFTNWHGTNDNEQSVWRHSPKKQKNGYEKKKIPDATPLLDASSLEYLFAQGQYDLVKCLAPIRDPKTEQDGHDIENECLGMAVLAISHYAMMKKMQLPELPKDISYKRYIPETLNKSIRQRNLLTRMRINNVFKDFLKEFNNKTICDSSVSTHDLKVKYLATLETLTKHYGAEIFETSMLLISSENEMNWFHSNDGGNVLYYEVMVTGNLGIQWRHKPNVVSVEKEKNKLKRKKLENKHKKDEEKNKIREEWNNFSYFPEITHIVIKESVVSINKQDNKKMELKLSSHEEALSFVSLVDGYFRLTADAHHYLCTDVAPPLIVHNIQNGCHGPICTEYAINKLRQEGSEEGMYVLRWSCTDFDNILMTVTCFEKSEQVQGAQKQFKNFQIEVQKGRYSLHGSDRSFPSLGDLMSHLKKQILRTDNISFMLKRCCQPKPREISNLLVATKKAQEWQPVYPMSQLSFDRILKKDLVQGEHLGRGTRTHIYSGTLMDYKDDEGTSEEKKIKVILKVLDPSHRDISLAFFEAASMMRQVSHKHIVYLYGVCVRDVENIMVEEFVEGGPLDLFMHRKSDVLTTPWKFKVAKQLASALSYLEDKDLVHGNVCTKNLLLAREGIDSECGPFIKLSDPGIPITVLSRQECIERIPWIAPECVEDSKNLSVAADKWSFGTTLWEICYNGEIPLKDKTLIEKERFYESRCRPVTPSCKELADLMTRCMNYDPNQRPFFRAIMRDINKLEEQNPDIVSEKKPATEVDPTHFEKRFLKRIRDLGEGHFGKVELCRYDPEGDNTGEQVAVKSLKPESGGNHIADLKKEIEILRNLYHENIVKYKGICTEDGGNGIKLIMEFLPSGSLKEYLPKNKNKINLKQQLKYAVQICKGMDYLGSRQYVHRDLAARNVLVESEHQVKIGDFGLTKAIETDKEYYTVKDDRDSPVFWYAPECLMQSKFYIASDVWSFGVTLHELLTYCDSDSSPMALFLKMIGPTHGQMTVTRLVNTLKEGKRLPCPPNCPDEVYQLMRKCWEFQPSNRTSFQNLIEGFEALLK

[3] = system: MV4-11; experiment: Antiproliferative activity against FLT3-ITD-positive human MV4-11 cells assessed as reduction in cell growth after 72 hrs by MTT assay; type: functional, cell-based; settings: MV4-11, 72 h
[4] = molecular target: Tyrosine-protein kinase JAK2 (Homo sapiens, UniProt O60674); experiment: Inhibition of human JAK2 (808 to end residues) assessed as residual activity at 100 nM using KTFCGTPEYLAP as substrate after 40 mins in presence of [gamma33P]-ATP by scintillation counting based radiometric assay relative to control
Chain of Tyrosine-protein kinase JAK2 (O60674 whole entry): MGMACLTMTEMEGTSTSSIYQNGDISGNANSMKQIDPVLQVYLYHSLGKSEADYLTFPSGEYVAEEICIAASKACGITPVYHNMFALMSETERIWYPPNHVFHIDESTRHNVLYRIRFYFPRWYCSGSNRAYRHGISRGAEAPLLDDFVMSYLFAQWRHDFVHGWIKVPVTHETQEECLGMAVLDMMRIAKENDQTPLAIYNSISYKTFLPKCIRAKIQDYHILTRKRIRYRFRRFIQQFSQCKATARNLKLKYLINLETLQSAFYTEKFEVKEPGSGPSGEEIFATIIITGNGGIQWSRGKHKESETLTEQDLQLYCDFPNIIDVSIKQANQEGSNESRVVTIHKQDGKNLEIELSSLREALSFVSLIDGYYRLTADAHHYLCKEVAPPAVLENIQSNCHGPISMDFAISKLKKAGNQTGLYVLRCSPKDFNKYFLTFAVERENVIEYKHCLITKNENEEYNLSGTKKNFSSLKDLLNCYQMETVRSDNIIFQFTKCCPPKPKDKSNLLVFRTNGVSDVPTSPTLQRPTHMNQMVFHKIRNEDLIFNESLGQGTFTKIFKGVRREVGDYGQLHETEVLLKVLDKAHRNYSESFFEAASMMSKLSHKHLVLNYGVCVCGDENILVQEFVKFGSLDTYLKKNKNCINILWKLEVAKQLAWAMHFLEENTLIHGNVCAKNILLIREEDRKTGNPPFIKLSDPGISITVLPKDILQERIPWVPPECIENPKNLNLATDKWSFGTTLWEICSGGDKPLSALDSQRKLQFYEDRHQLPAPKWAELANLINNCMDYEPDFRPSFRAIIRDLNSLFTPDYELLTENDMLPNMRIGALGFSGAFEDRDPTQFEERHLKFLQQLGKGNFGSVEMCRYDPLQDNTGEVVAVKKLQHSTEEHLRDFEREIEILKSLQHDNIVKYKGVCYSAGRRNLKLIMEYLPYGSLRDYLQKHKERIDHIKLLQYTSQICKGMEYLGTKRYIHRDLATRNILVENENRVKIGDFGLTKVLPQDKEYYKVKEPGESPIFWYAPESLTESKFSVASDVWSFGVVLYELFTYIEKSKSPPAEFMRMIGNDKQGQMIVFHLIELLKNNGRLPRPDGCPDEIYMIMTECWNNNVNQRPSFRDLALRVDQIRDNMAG

[5] = molecular target: T1, Tyrosine-protein kinase JAK3 (Homo sapiens) (UniProt P52333); experiment: Inhibition of human JAK3 (781 to end residues) assessed as residual activity at 100 nM using GGEEEEYFELVKK as substrate after 40 mins in presence of [gamma33P]-ATP by scintillation counting based radiometric assay relative to control
T1 sequence (whole entry): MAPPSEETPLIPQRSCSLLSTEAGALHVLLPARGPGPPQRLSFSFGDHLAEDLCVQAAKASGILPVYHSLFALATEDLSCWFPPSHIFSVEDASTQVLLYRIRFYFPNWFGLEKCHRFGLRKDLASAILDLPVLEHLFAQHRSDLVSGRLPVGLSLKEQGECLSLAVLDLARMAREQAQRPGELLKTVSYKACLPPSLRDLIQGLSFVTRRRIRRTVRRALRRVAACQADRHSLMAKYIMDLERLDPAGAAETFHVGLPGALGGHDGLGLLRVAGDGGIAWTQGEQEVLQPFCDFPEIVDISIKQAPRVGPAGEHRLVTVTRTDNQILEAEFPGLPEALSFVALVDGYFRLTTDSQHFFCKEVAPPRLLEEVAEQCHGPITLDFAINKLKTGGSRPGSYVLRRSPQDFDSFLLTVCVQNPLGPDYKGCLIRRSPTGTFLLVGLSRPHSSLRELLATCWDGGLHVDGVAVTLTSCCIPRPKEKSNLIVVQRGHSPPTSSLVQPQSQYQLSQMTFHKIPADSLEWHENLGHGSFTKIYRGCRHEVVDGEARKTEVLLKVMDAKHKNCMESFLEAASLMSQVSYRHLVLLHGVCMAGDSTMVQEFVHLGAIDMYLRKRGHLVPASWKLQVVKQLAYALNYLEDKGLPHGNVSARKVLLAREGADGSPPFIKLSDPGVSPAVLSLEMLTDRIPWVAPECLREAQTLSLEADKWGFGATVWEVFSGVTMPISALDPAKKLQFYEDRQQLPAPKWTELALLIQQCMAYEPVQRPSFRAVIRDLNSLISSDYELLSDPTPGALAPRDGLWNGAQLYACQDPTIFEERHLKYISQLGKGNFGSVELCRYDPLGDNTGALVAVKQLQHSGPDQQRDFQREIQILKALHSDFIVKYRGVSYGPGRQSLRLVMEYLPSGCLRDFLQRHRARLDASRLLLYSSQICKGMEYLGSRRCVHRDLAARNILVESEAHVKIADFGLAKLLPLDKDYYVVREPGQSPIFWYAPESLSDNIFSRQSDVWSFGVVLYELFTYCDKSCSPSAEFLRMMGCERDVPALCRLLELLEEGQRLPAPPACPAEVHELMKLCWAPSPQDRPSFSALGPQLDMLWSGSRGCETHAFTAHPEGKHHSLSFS

[6] = system: MOLM-13; experiment: Antiproliferative activity against FLT3-ITD-positive human MOLM13 cells assessed as reduction in cell growth after 72 hrs by MTT assay; type: functional, cell-based; settings: MOLM-13, 72 h

Activity [1]	Activity [2]	IC50 [3]	Activity [4]	Activity [5]	IC50 [6]	SMILES
6%	24%	7.3 nM	3%	9%	47 nM	CCCN(C)C1CCN(c2ccc(Nc3ncc(C)c(-c4cnn(C(C)C)c4)n3)cc2F)CC1
10%	36%	26 nM	8%	47%	100 nM	CC(C)n1cc(-c2nc(Nc3ccc(N4CCC(N5CCCCC5)CC4)c(F)c3)ncc2F)cn1
15%	59%	61 nM	27%	52%	410 nM	CCCn1cc(-c2nc(Nc3ccc(N4CCN(CC)CC4)c(F)c3)ncc2F)cn1
14%	48%	57 nM	19%	69%	490 nM	CCCn1cc(-c2nc(Nc3ccc(N4CCN(C)CC4)c(F)c3)ncc2F)cn1
8%	17%	5.4 nM	5%	23%	100 nM	Cc1cnc(Nc2ccc(N3CCC(N(C)C)CC3)c(F)c2)nc1-c1cnn(C(C)C)c1
–	–	> 1000 nM	–	–	> 10000 nM	Cc1cnc(Nc2ccc(N3CCC(N(C)CCCCCO)CC3)c(F)c2)nc1-c1cnn(C(C)C)c1
17%	62%	31 nM	17%	66%	250 nM	CCN1CCN(c2ccc(Nc3ncc(F)c(-c4cnn(C(C)C)c4)n3)cc2F)CC1
6%	23%	30 nM	10%	36%	70 nM	Cc1cnc(Nc2ccc(N3CCC(N(C)CC4CCCO4)CC3)c(F)c2)nc1-c1cnn(C(C)C)c1 (stereo not given)
7%	23%	43 nM	11%	33%	150 nM	CCN(CCN1CCOCC1)C1CCN(c2ccc(Nc3ncc(C)c(-c4cnn(C(C)C)c4)n3)cc2F)CC1
10%	54%	36 nM	10%	44%	590 nM	CC(C)n1cc(-c2nc(Nc3ccc(N4CCN(C5CCN(C)CC5)CC4)c(F)c3)ncc2F)cn1
–	–	8300 nM	–	–	–	CN1CCN(c2ccc(Nc3ncc(F)c(-c4cnn(C5CCCC5)c4)n3)cc2F)CC1
–	–	1100 nM	–	–	4000 nM	CCN1CCN(c2ccc(Nc3ncc(C)c(-c4cnn(C(C)C)c4)n3)cc2F)CC1
8%	20%	210 nM	8%	9%	210 nM	CCCN(CCN1CCOCC1)C1CCN(c2ccc(Nc3ncc(C)c(-c4cnn(C(C)C)c4)n3)cc2F)CC1
–	–	8100 nM	–	–	9700 nM	CCCn1cc(-c2nc(Nc3ccc(N4CCN(C)CC4)cc3F)ncc2F)cn1
6%	26%	70 nM	18%	44%	210 nM	CCCCCCN(C)C1CCN(c2ccc(Nc3ncc(C)c(-c4cnn(C(C)C)c4)n3)cc2F)CC1
–	–	4200 nM	–	–	> 10000 nM	CCCn1cc(-c2nc(Nc3ccc(N4CCN(CC)CC4)cc3F)ncc2F)cn1

Activity [1]	Activity [2]	IC50 [3]	Activity [4]	Activity [5]	IC50 [6]	SMILES
–	–	200 nM	–	–	550 nM	Cc1cnc(Nc2ccc(N3CCC(NCCO)CC3)c(F)c2)nc1-c1cnn(C(C)C)c1
16%	113%	57 nM	39%	77%	850 nM	CCN1CCN(c2ccc(Nc3ncc(F)c(-c4cnn(C(C)C)c4)n3)c(F)c2)CC1
4%	20%	8.1 nM	15%	31%	31 nM	Cc1cnc(Nc2ccc(N3CCC(N(C)CC4CC4)CC3)c(F)c2)nc1-c1cnn(C(C)C)c1
5%	19%	7.3 nM	9%	28%	28 nM	CCOCCN(C)C1CCN(c2ccc(Nc3ncc(C)c(-c4cnn(C(C)C)c4)n3)cc2F)CC1
–	–	160 nM	–	–	840 nM	Cc1cnc(Nc2ccc(N3CCC(CO)CC3)c(F)c2)nc1-c1cnn(C(C)C)c1
11%	49%	27 nM	15%	41%	540 nM	CCCCn1cc(-c2nc(Nc3ccc(N4CCN(C)CC4)c(F)c3)ncc2F)cn1
13%	68%	240 nM	19%	32%	180 nM	CCCCN1CCC(n2cc(-c3nc(Nc4ccc(N5CCN(C)CC5)c(F)c4)ncc3F)cn2)CC1
12%	57%	27 nM	27%	68%	410 nM	CCN1CCN(c2ccc(Nc3ncc(F)c(-c4cnn(C5CCCC5)c4)n3)cc2F)CC1
–	–	110 nM	–	–	190 nM	CCCN1CCC(n2cc(-c3nc(Nc4ccc(N5CCN(C)CC5)c(F)c4)ncc3F)cn2)CC1
–	–	7800 nM	–	–	–	CC(C)n1cc(-c2nc(Nc3ccc(N4CCN(C)CC4)cc3F)ncc2F)cn1
6%	35%	42 nM	3%	40%	120 nM	Cc1cnc(Nc2ccc(N3CCN(C)CC3)c(F)c2)nc1-c1cnn(C(C)C)c1
6%	21%	12 nM	4%	38%	170 nM	Cc1cnc(Nc2ccc(N3CCC(N(C)CCN4CCCCC4)CC3)c(F)c2)nc1-c1cnn(C(C)C)c1
–	–	26 nM	–	–	940 nM	CC(C)n1cc(-c2nc(Nc3ccc(N4CCN(C)CC4)c(F)c3)ncc2F)cn1
–	–	4500 nM	–	–	–	CN(C)C1CCN(c2ccc(Nc3ncc(F)c(-c4cnn(C5CCCC5)c4)n3)cc2F)CC1
5%	20%	18 nM	23%	37%	89 nM	Cc1cnc(Nc2ccc(N3CCC(N(C)CCN4CCOCC4)CC3)c(F)c2)nc1-c1cnn(C(C)C)c1
9%	57%	32 nM	6%	48%	540 nM	CC(C)n1cc(-c2nc(Nc3ccc(N4CCC(N(C)C)CC4)c(F)c3)ncc2F)cn1
